Source: patent publication US7572603B2, “Alpha-2 adrenergic receptor polymorphisms” (University of Cincinnati, priority 2000, dated 2009)
Positions count from the first letter of the chain named.

Tests used:
[1] = biological target: T1, wild-type Asn251 alpha-2AAR (Homo sapiens, UniProt P08913); details: expression 2360±263 fmol/mg
T1 sequence (P08913 16-465): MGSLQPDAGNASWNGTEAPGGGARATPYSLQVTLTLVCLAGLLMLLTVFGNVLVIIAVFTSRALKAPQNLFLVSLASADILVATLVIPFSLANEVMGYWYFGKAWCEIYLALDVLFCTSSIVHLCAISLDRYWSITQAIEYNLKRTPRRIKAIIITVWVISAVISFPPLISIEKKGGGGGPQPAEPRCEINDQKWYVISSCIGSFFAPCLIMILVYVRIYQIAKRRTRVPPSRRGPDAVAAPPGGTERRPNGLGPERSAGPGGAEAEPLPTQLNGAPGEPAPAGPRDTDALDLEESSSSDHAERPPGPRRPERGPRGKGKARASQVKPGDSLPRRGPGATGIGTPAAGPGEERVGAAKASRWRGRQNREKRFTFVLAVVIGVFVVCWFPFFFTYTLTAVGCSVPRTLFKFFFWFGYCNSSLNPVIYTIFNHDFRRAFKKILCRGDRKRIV
Procedure: (§1) Alpha-2AAR inhibition of adenylyl cyclase was determined in membrane preparations from CHO cells stably expressing the two receptors using methods similar to those previously described (18). […] Reactions were terminated by the addition of a stop solution containing excess ATP and cAMP and —100,000 dpm of [3H]cAMP. Labeled cAMP was isolated by gravity chromatography over alumina columns with [3H]cAMP used to quantitate column recovery. […] Results are expressed as percent inhibition of forskolin stimulated activity.

Lys251 alpha-2AAR [2] = biological target: T2, Lys251 alpha-2AAR (Homo sapiens, UniProt P08913, N266K)
T2 sequence (P08913 16-465 N266K): T1 sequence (P08913 16-465) with N251K
Procedure: as §1

wild-type alpha-2CAR [3] = biological target: T3, wild-type alpha-2CAR (Homo sapiens, UniProt P18825, L239R/R446P/S401I); assay: Inhibition of forskolin-stimulated adenylyl cyclase, CHO cell membranes; type: biochemical; parameters: expressed in transfected cells; membranes or intact cells; details: for Max Inhibition (%) of adenylyl cyclase: CHO line expressing 1570 ± 79.9 fmol/mg
T3 sequence (P18825 1-462 L239R/S401I/R446P): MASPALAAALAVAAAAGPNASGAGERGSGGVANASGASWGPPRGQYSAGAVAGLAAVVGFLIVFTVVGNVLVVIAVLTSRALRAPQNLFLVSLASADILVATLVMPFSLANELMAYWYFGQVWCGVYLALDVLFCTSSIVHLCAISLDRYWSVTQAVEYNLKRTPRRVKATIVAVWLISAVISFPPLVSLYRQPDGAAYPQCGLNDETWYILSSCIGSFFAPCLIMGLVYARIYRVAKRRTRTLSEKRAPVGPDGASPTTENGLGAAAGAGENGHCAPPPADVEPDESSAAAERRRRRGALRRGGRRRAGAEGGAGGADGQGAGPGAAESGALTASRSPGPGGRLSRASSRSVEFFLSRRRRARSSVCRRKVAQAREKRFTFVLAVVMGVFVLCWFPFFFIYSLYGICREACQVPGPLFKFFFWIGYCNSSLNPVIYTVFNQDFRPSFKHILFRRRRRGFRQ
Description: (§2) Reactions were terminated by the addition of a stop solution containing excess ATP and cAMP and —100,000 dpm of [3H]cAMP. Labeled cAMP was isolated by gravity chromatography over alumina columns with [3H]cAMP used to quantitate column recovery. […] Results are expressed as percent inhibition of forskolin stimulated activity.

wild-type alpha-2CAR [4] = biological target: T3, wild-type alpha-2CAR; details: epinephrine competition, absence of GTP
wild-type alpha-2CAR [5] = biological target: T3, wild-type alpha-2CAR; details: 10 μM epinephrine vs 1 unit/ml thrombin
wild-type alpha-2CAR [6] = biological target: T3, wild-type alpha-2CAR; details: 10 μM epinephrine, 5 min; expression 806 fmol/mg
Lys251 alpha-2AAR [7] = biological target: T2, Lys251 alpha-2AAR; assay: [35S]GTPyS binding, COS-7 membranes coexpressing receptor and Gi alpha2; type: biochemical; parameters: expressed in transfected cells; membranes or intact cells; details: 10 μM agonist
Procedure: Nonspecific binding was measured in the presence of […] GTPyS.

wild-type alpha-2BAR [8] = biological target: T4, wild-type alpha-2BAR (Homo sapiens, UniProt P18089); assay: Inhibition of forskolin-stimulated adenylyl cyclase, CHO cell membranes, incl. desensitization; type: biochemical; parameters: The human receptor consists of 450 amino acids; expressed in transfected cells; membranes
T4 sequence (P18089 1-450): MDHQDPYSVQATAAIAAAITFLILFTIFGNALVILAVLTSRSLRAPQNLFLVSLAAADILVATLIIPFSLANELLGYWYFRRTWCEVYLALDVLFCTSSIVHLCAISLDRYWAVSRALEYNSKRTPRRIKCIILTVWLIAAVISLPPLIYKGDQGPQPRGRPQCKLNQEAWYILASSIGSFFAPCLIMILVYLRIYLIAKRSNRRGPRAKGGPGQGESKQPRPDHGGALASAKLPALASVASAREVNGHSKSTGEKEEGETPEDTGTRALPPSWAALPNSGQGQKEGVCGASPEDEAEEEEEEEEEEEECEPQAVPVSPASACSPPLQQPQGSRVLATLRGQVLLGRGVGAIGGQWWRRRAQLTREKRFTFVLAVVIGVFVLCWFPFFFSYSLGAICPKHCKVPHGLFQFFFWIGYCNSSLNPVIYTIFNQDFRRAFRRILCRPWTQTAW
Procedure: Alpha-2BAR inhibition of adenylyl cyclase was determined in membrane preparations from CHO cells stably expressing the two receptors using methods similar to those previously described (25). […] Reactions were terminated by the addition of a stop solution containing excess ATP and cAMP and -100,000 dpm of [3H]cAMP. Labeled cAMP was isolated by gravity chromatography over alumina columns with [3H]cAMP used to quantitate column recovery. Results are expressed as percent inhibition of forskolin stimulated activity.

wild-type alpha-2BAR [9] = biological target: T4, wild-type alpha-2BAR; type: cell-based; parameters: expressed in transfected cells; host or cells: COS-7, transient (DEAE-dextran), co-transfected with GRK2; details: 10 μM norepinephrine 15 minutes, GRK2 co-expressed
wild-type alpha-2CAR [10] = biological target: T5, wild-type alpha-2CAR (Homo sapiens, UniProt P18825); assay: Inhibition of forskolin-stimulated adenylyl cyclase, CHO cell membranes; type: biochemical; details: CHO line expressing 1570 ± 79.9 fmol/mg
T5 construct: expressed in transfected cells; membranes or intact cells
T5 sequence (P18825 1-462 L239R/S401I/R446P): T3 sequence (P18825 1-462 L239R/S401I/R446P)
Description: as §2

## Cc1cc(C(C)(C)C)c(O)c(C)c1CC1=NCCN1 [oxymetazoline]
[1]
  Maximal inhibition of forskolin-stimulated adenylyl cyclase: 35±4.7%
Lys251 alpha-2AAR [2]; Lys251 vs Asn251
  augmented function (adenylyl cyclase inhibition) compared to the Asn251 receptor: ~40%
Lys251 alpha-2AAR [2]; expression 2590±140 fmol/mg
  Maximal inhibition of forskolin-stimulated adenylyl cyclase: 50±6.6%
wild-type alpha-2CAR [3]
  Max Inhibition (%) of adenylyl cyclase: 27.0 ± 2.70%

## CNC[C@H](O)c1ccc(O)c(O)c1 [epinephrine]
wild-type alpha-2CAR [4]
  % RH (percentage of receptors in the high-affinity state): 42%
wild-type alpha-2CAR [5]
  MAP kinase stimulation as a percent of the thrombin response: 128
wild-type alpha-2CAR [6]
  stimulated accumulation of inositol phosphates over basal: 3Q
wild-type alpha-2CAR [3]; lower expressing line, 565 fmol/mg
  agonist-promoted inhibition of adenylyl cyclase: 73%

## NC[C@H](O)c1ccc(O)c(O)c1 [norepinephrine]
Lys251 alpha-2AAR [7]
  enhanced [35S]GTPyS binding for the Lys251 receptor as compared to the Asn251 receptor: ~40%
wild-type alpha-2CAR [3]
  Max Inhibition (%) of adenylyl cyclase: 76.6 ± 1.60%
wild-type alpha-2BAR [8]; after 10 μM norepinephrine 30 min at 37° C.
  Desensitization %: ~54%
wild-type alpha-2BAR [8]; at the EC50 of control membranes, cells pretreated with media alone
  Submax inhibition % Ctrl: 16.5±3.9%
wild-type alpha-2BAR [8]; receptor density 626±54 fmol/mg
  Max Inhibition of forskolin-stimulated adenylyl cyclase: 28.5±1.6%
wild-type alpha-2BAR [9]
  fold increase in receptor phosphorylation with agonist exposure: 5.84±0.49 fold

## N=C(N)N/N=C/c1c(Cl)cccc1Cl [guanabenz]
Lys251 alpha-2AAR [7]
  enhanced [35S]GTPyS binding for the Lys251 receptor as compared to the Asn251 receptor: 72%
wild-type alpha-2CAR [3]
  Max Inhibition (%) of adenylyl cyclase: 53.8 ± 1.99%

## CCN1CCc2nc(N)oc2CC1 [BHT-933]
wild-type alpha-2CAR [10]
  EC50: 5500 ± 2110 nM
Lys251 alpha-2AAR [7]
  enhanced [35S]GTPyS binding for the Lys251 receptor as compared to the Asn251 receptor: 45%
wild-type alpha-2CAR [3]
  Max Inhibition (%) of adenylyl cyclase: 56.8 ± 1.41%

## Clc1cccc(Cl)c1N=C1NCCN1 [clonidine]
wild-type alpha-2CAR [3]
  Max Inhibition (%) of adenylyl cyclase: 38.5 ± 2.44%

## Brc1c(NC2=NCCN2)ccc2nccnc12 [UK 14304]
Lys251 alpha-2AAR [7]
  enhanced [35S]GTPyS binding for the Lys251 receptor as compared to the Asn251 receptor: ~40%
wild-type alpha-2CAR [3]
  Max Inhibition (%) of adenylyl cyclase: 67.6 ± 2.09%
